Measurements taken from publication PMC8426237, “A first-in-human phase I study of TAS0728, an oral covalent binding inhibitor of HER2, in patients with advanced solid tumors with HER2 or HER3 aberrations” (Investigational New Drugs, 2021).

Assays:
[1] = tested on: advanced solid tumors with HER2 or HER3 aberrations; test: Antitumor activity, objective tumor assessment by RECIST1.1; type: in vivo, human
Description: Objective tumor assessments were made according to the revised response evaluation criteria in solid tumors [RECIST1.1] [8] from evaluation of magnetic resonance imaging (MRI)/computed tomography (CT) scans made at screening (baseline) and after every 2 cycles during the first 6 months of treatment with TAS0728, and after every 3 cycles of treatment thereafter.

[2] = tested on: xenograft models of tumors with acquired resistance to trastuzumab/pertuzumab or to T-DM1; parameters: method as in PMID 32248641; settings: cited from earlier work
[3] = Dose-limiting toxicities, 3 + 3 dose escalation, first cycle; type: in vivo, human; settings: for Any DLTs / DLT: Grade ≥ 3 diarrhea only if lasting >48 h and unresponsive to intensive antidiarrheal medication: DLT-evaluable population; for Patients with DLT AEs: all treated population
Procedure: Based on preclinical toxicological studies and PK analysis, the starting dose of TAS0728 was 50 mg BID. Dose escalation followed a 3 + 3 dose-escalation scheme and planned to proceed using the following dose levels BID: 50 mg, 100 mg, 200 mg, 400 mg, 600 mg and 800 mg. TAS0728 was administered during a 21-day cycle.
If a DLT was identified at a particular dose level, de-escalation was made to an intermediate de-escalation dose level. […] The MTD was to be the dose level at which 0 of 6 or 1 of 6 patients experienced a DLT, with at least 2 patients experiencing DLTs at the next higher dose level. For the determination of the MTD, DLTs that occurred during the first cycle (i.e., first 21 days) of TAS0728 treatment were considered. Patients who experienced AEs were allowed two dose reductions during the study. TAS0728 treatment could be continued until disease progression, unacceptable toxicity, withdrawal of consent, or at the discretion of the investigator.

[4] = human, in vivo
Procedure: A DLT was defined as a study treatment-related adverse event (TRAE), according to the Common Terminology Criteria for Adverse Events (CTCAE, Version 5.0), with qualifying criteria for certain DLTs (e.g., Grade ≥ 3 diarrhea, was included as a DLT only if lasting >48 h and unresponsive to intensive antidiarrheal medication).
Patients were closely monitored for these potential toxicities during the current study. Safety assessments included recording of AEs and serious AEs (SAEs) from the time of signing the study informed consent form to 30 days after the last dose of study medication. Safety parameters including laboratory evaluations (hematology, coagulation, chemistry, and urinalysis), vital sign measurements and body weight, electrocardiogram (ECG) recordings, ECOG performance status, echocardiogram or multi-gated acquisition (MUGA), and physical examination were assessed at screening, during the study and at 30 days following the last dose. The use of concomitant medications was permitted and details for such medications were recorded.

[5] = parameters: method as in PMID 30787176; settings: efficacious doses in mouse models; cited from earlier work
[6] = tested on: HER2 overexpressed cancer cells; parameters: method as in PMID 30787176; settings: cited from earlier work
[7] = tested on: HER2; parameters: method as in PMID 30787176; settings: cited from earlier work
[8] = Plasma pharmacokinetics after single and multiple oral doses; type: in vivo, human
Procedure: Multiple blood samples were collected on day 1 of cycles 1 and 2 (i.e., pre-dose, post-dose at +0.5 h, +1 h, +1.5 h, +2 h, +3 h, +4 h, +6 h, +8 h, +12 h) for analysis of plasma PK after administration of single and multiple doses respectively; urine samples were collected 0–3 h prior to morning dose and 0–12 h post-morning dose on day 1 of cycle 1.
Continuous data were summarized with frequency, median, range, mean, standard deviation and standard error if relevant. Categorical data were presented as frequencies and percentages. 95% confidence intervals (CI) were calculated following the exact method. A p value <0.05 was considered statistically significant. Data were analyzed using the SAS® system software version 9.3 for Windows® (Statistical Analysis System, Cary, NC, USA). The PK data were analyzed using Phoenix WinNonlin (Version 6.4 or later, Certara L.P; Princeton New Jersey, United States). All analyses were descriptive and exploratory; no formal statistical testing was conducted.

[9] = planned dose 50 mg, cycle 1, day 1, mean, n 3
[10] = planned dose 50 mg, cycle 1, day 1, n 3
[11] = planned dose 100 mg, cycle 1, day 1, mean, n 3
[12] = planned dose 100 mg, cycle 1, day 1, n 3
[13] = planned dose 100 mg, cycle 2, day 1, mean, n 2
[14] = planned dose 100 mg, cycle 2, day 1, mean, n 3
[15] = planned dose 100 mg, cycle 2, day 1, n 3
[16] = planned dose 150 mg, cycle 1, day 1, mean, n 5
[17] = planned dose 150 mg, cycle 1, day 1, mean, n 6
[18] = planned dose 150 mg, cycle 1, day 1, n 6
[19] = planned dose 150 mg, cycle 2, day 1, mean, n 2
[20] = planned dose 150 mg, cycle 2, day 1, n 2
[21] = planned dose 200 mg, cycle 1, day 1, mean, n 6
[22] = planned dose 200 mg, cycle 1, day 1, mean, n 7
[23] = planned dose 200 mg, cycle 1, day 1, n 7
[24] = planned dose 200 mg, cycle 2, day 1, mean, n 2
[25] = planned dose 200 mg, cycle 2, day 1, n 2

## C=CC(=O)N1CCC[C@@H](n2nc(C(=O)Nc3ccc(CC(=O)N(C)C)c(C)c3C)c3c(N)ncnc32)C1 [TAS0728]
[1]; 200 mg BID, no dose adjustment
  Time on treatment before disease progression, patient with PR (BTC, HER2 amplification): 136 days
[1]; all dose levels
  Patients with disease control (best overall tumor response of PR or SD): 10
[1]; of 19 treated patients, NSCLC with HER2 mutation at 50 mg BID, BTC with HER2 amplification at 200 mg BID
  Objective responses (PR): two
[2]
  Anti-tumor effect: significant anti-tumor effects
[3]; 50 mg BID (N = 3)
  Any DLTs: 0 n, (%)
  DLT: Grade ≥ 3 diarrhea only if lasting >48 h and unresponsive to intensive antidiarrheal medication: 0 n, (%)
  Patients with DLT AEs: 0 n, (%)
[3]; 100 mg BID (N = 3)
  Any DLTs: 0 n, (%)
  DLT: Grade ≥ 3 diarrhea only if lasting >48 h and unresponsive to intensive antidiarrheal medication: 0 n, (%)
  Patients with DLT AEs: 0 n, (%)
[3]; 150 mg BID (N = 3)
  Any DLTs: 1 (33.3) n, (%)
  DLT: Grade ≥ 3 diarrhea only if lasting >48 h and unresponsive to intensive antidiarrheal medication: 1 (33.3) n, (%)
[3]; 150 mg BID (N = 6)
  Patients with DLT AEs: 1 (16.7) n, (%)
[3]; 200 mg BID
  DLTs observed (Grade 3 diarrhea lasting >48 h, not responsive to antidiarrheal treatment): two
[3]; 200 mg BID (N = 6)
  Any DLTs: 2 (33.3) n, (%)
  DLT: Grade ≥ 3 diarrhea only if lasting >48 h and unresponsive to intensive antidiarrheal medication: 2 (33.3) n, (%)
[3]; 200 mg BID (N = 7)
  Patients with DLT AEs: 2 (28.6) n, (%)
[3]; Overall (N = 19)
  Patients with DLT AEs: 3 (15.8) n, (%)
[3]; Total (N = 15)
  Any DLTs: 3 (20.0) n, (%)
  DLT: Grade ≥ 3 diarrhea only if lasting >48 h and unresponsive to intensive antidiarrheal medication: 3 (20.0) n, (%)
[4]
  Patients with urinary tract infection: 28.6%
[5]
  Diarrhea during treatment: did not induce diarrhea
[6]
  Inhibitory activity for overexpressed/amplified HER2 and mutated HER2 in cancer cells: potent inhibitory activity
[6]; in vitro and in vivo
  Antiproliferative activity against HER2 overexpressed cancer cells: antiproliferative activity
[7]
  Specificity for HER2 over wild-type EGFR: high specificity for HER2 over wild-type EGFR
[7]; nonclinical studies
  Inhibitory effect against HER2 and HER3 versus EGFR: much greater against HER2 and HER3 than against EGFR
[8]; BID multiple-dose administration
  Accumulation of TAS0728 exposure: No significant accumulation
[8]; cycle 1, day 1, all dose levels
  t1/2: approximately 2.0 h
[8]; [9]
  AUC0–12: 2437 ng·h/mL
  AUCinf: 2470 ng·h/mL
  AUClast: 2415 ng·h/mL
  Cmax: 1162 ng/mL
  t1/2: 1.96 h
[8]; [10]
  Tmax maximum: 1.58 h
  Tmax median: 0.50 h
  Tmax minimum: 0.50 h
[8]; [11]
  AUC0–12: 5669 ng·h/mL
  AUCinf: 5765 ng·h/mL
  AUClast: 5626 ng·h/mL
  Cmax: 2039 ng/mL
  t1/2: 1.90 h
[8]; [12]
  Tmax maximum: 3.05 h
  Tmax median: 0.58 h
  Tmax minimum: 0.53 h
[8]; [13]
  AUC0–12: 5475 ng·h/mL
  R(AUC0–12), observed accumulation ratio of AUC0–12: 0.87
  t1/2: 2.17 h
[8]; [14]
  AUClast: 4276 ng·h/mL
  Cmax: 1389 ng/mL
  R (Cmax), observed accumulation ratio of Cmax: 0.56
[8]; [15]
  Tmax maximum: 6.20 h
  Tmax median: 3.03 h
  Tmax minimum: 0.92 h
[8]; [16]
  AUC0–12: 12,946 hr*ng/mL
  AUCinf: 13,158 hr*ng/mL
  t1/2: 1.91 h
[8]; [17]
  AUClast: 19,523 hr*ng/mL
  Cmax: 5402 ng/mL
[8]; [18]
  Tmax maximum: 1.05 h
  Tmax median: 0.59 h
  Tmax minimum: 0.50 h
[8]; [19]
  AUC0–12: 14,782 hr*ng/mL
  AUClast: 14,782 hr*ng/mL
  Cmax: 3460 ng/mL
  R (Cmax), observed accumulation ratio of Cmax: 0.91
  R(AUC0–12), observed accumulation ratio of AUC0–12: 1.61
  t1/2: 3.11 h
[8]; [20]
  Tmax maximum: 1.58 h
  Tmax median: 1.30 h
  Tmax minimum: 1.02 h
[8]; [21]
  AUC0–12: 14,653 hr*ng/mL
  AUCinf: 15,046 hr*ng/mL
  t1/2: 2.05 h
[8]; [22]
  AUClast: 15,108 hr*ng/mL
  Cmax: 5091 ng/mL
[8]; [23]
  Tmax maximum: 3.92 h
  Tmax median: 1.00 h
  Tmax minimum: 0.45 h
[8]; [24]
  AUC0–12: 11,459 hr*ng/mL
  AUClast: 11,248 hr*ng/mL
  Cmax: 2565 ng/mL
  R (Cmax), observed accumulation ratio of Cmax: 0.96
  R(AUC0–12), observed accumulation ratio of AUC0–12: 1.18
  t1/2: 3.13 h
[8]; [25]
  Tmax maximum: 3.25 h
  Tmax median: 1.88 h
  Tmax minimum: 0.52 h
